Results as given in patent US8419943B2, “Method of removing protein-bound deleterious substances during extracorporeal renal replacement treatment” (Fresenius Medical Care Holdings, Inc., priority 2008, dated 2013).

How the values were obtained:
[1] = normal adults; cited from earlier work
albumin = albumin (Homo sapiens, UniProt P02768); assay: Competitive displacement of indoxyl sulfate by bilirubin in model uremic plasma; assay type: binding; details: uremic plasma (BUN about 55 mg/dL, albumin 3.82 g/dL) with 2 mMolar Bil-DT, 12 hours at 37° C.; control without Bil-DT 0.65 μg/ml
Protocol: Two samples of uremic plasma (blood urea nitrogen (BUN) of about 55 mg/dL, albumin concentration of 3.82 g/dL) including indoxyl sulfate were incubated for 12 hours at 37° C. One sample also included 2 mMolar bilirubin ditauride (Bil-DT).

Chain of albumin (P02768 25-609): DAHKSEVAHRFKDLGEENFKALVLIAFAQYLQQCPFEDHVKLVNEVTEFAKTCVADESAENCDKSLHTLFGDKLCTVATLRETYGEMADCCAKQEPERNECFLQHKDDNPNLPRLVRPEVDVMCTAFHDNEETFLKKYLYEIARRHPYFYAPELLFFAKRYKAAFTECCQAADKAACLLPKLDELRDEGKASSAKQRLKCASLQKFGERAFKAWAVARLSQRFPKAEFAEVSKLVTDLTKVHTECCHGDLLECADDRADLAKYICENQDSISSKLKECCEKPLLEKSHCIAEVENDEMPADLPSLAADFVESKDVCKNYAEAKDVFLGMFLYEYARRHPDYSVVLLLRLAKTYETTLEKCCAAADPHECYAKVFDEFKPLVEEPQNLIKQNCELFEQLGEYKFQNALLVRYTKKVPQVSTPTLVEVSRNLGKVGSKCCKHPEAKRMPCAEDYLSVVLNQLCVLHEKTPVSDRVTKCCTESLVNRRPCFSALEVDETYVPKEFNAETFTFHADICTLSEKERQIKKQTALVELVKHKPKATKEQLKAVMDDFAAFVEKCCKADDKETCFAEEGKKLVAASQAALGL

Molecule	non-toxic level of serum bilirubin concentration [1]	free indoxyl sulfate concentration (albumin)
C=CC1=C(C)/C(=C/c2[nH]c(Cc3[nH]c(/C=C4\NC(=O)C(C)=C4C=C)c(C)c3CCC(=O)O)c(CCC(=O)O)c2C)NC1=O [Bilirubin, bilirubin]	about 10 mg/dL	–
bilirubin ditauride [Bil-DT]	–	0.93 µg/mL
